# Source: ChEMBL document CHEMBL1201862, “PubChem BioAssay data set” (2004)
# Activity calls are given as the source filed them.
# Experiments:
# [1] = molecular target: T1, Estrogen receptor beta (Homo sapiens, UniProt Q92731);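 further: recombinant ER-beta bound to coactivator SRC1 peptide in presence of estradiol agonist; inhibitors block coactivator peptide binding and lower the FRET signal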
# [2] = molecular target: T1, Estrogen receptor beta; experiment: blockers of SRC-3 recruitment to ERβ – biochemical, ELISA, streptavidin-HRP readout, orthogonal assay, confirmation (AID 1060)
# [3] = cells; type: functional, cell-based
# [4] = cells; type: functional, cell-based; remark: listed apart in the source
# [5] = molecular target: T2, Calpain-2 catalytic subunit (Sus scrofa, UniProt P43367); experiment: m-calpain protease blockers, concentration series – biochemical, fluorogenic peptide substrate, dose response (AID 1420); type: functional
# T2 sequence (P43367 whole entry): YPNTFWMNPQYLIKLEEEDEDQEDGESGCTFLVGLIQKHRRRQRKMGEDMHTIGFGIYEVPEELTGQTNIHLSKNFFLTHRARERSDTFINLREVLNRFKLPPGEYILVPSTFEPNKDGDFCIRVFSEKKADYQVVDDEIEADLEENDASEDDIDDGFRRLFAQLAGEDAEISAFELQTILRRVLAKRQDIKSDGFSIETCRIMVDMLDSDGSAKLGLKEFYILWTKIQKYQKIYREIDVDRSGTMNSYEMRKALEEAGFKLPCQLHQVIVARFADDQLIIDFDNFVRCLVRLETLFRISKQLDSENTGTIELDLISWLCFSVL
# [6] = THP-1 cell cytotoxicity, dose response, cytotoxicity control for non-replicating M. tuberculosis project (AID 489025); type: functional
# [7] = HepG2 cell cytotoxicity, dose response, cytotoxicity control for non-replicating M. tuberculosis project (AID 489018); type: functional; conditions: Mycobacterium tuberculosis
# [8] = Vero E6 cell cytotoxicity, dose response, cytotoxicity control for non-replicating M. tuberculosis project, secondary assay (AID 492998); type: functional, VeroE6; conditions: Vero C1008
# [9] = cells; type: functional
# [10] = test system: INS1; experiment: INS-1E survival protection against cytokine death – cell-based, luminescence, retest, dose response (AID 449756); type: functional; conditions: Rattus norvegicus;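 further: cell death triggered by IL-1 beta plus TNF-alpha plus IFN-gamma mixture; protective hits raise ATP signal compared with cytokine alone wells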
# [11] = test system: Vero; experiment: cells; type: functional; conditions: Chlorocebus sabaeus
# [12] = molecular target: T3, Polyadenylate-binding protein 1 (Homo sapiens, UniProt P11940); experiment: MLLE binding blockers, Cy5 peptide tracer – biochemical, fluorescence polarization, Cy5-PAM2 peptide, secondary, miRNA deadenylation inhibitor project, dose response (AID 602260); type: functional; conditions: read-out: IC50_Mean
# [13] = molecular target: T3, Polyadenylate-binding protein 1; experiment: MLLE domain peptide-binding blockers, IC50 – biochemical, fluorescence polarization, FITC-PAM2 peptide, dose response (AID 602259); type: functional; conditions: read-out: IC50_Mean
# [14] = molecular target: T4, Short transient receptor potential channel 4 (Mus musculus, UniProt Q9QUQ5); experiment: calcium entry via TRPC4 opening agents – cell-based, HEK293 TRPC4/mu-opioid, Fluo-4 calcium, dose response (AID 434937); type: functional
# T4 sequence (Q9QUQ5 whole entry): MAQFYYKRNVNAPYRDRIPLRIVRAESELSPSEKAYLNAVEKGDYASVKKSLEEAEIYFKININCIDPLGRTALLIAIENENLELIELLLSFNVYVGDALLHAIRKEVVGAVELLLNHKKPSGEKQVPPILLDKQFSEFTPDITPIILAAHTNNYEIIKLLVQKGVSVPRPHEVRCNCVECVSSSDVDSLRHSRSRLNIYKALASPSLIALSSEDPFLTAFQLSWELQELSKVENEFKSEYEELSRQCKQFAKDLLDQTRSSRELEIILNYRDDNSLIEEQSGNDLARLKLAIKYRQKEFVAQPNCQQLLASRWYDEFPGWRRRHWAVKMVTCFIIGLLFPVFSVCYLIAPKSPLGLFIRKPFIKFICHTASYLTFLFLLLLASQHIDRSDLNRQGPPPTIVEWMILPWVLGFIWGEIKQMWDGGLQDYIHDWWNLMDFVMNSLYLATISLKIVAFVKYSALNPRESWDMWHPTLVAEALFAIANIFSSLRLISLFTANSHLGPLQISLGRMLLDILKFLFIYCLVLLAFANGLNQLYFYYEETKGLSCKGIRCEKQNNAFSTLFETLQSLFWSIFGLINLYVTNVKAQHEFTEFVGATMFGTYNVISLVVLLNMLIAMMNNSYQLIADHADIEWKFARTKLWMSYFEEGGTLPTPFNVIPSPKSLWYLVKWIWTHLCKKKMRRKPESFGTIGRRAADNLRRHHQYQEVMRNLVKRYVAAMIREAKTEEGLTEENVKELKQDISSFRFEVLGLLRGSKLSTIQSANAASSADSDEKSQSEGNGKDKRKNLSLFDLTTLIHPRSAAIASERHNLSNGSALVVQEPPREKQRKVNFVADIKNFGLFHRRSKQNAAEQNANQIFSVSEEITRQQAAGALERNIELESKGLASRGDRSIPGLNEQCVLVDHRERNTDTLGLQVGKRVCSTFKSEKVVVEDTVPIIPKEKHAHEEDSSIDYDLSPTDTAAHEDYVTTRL
# [15] = molecular target: Voltage-dependent T-type calcium channel subunit alpha-1H (Homo sapiens, UniProt O95180); type: functional;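 further: channel activity triggered by adding a high calcium stimulation buffer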
# [16] = molecular target: T5, RNA-binding protein pos-1 (Caenorhabditis elegans, UniProt G5EF15); experiment: disruptors of C. elegans POS-1 RNA interaction – biochemical, fluorescence polarization, dose response (AID 1964);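 further: purified POS-1 fused to maltose binding protein made in E. coli; potency of compounds blocking POS-1 binding to fluorescent RNA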
# T5 sequence (G5EF15 whole entry): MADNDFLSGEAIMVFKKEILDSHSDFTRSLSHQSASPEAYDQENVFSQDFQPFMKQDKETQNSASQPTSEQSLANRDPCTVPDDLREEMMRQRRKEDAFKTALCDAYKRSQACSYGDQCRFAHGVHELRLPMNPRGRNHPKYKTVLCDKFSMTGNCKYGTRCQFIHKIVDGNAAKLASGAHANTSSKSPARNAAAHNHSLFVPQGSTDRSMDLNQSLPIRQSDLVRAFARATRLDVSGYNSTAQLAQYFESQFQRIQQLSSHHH
# [17] = molecular target: T6, Zinc finger protein mex-5 (Caenorhabditis elegans, UniProt Q9XUB2); experiment: potency of MEX-5 RNA-binding blockers – biochemical, C. elegans, fluorescence polarization, dose response (AID 1960)
# T6 sequence (Q9XUB2 whole entry): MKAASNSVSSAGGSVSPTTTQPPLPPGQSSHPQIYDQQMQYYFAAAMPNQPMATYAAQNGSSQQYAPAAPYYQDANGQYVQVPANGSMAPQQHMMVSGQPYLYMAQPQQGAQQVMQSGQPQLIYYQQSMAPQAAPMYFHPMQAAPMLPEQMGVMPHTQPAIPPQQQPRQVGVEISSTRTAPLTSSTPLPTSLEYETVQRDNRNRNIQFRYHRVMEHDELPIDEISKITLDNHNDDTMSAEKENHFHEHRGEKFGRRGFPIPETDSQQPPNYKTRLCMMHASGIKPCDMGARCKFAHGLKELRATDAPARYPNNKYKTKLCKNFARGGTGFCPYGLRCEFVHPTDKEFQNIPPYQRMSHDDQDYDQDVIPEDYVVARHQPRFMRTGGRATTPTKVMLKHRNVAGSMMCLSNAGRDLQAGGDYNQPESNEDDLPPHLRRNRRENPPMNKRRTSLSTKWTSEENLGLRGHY
# [18] = HIV-1 Vif–A3G interaction blockers – biochemical, TR-FRET, GST-Vif 1-94, biotin-A3G peptide, dose response retest, primary screen (AID 1117319); type: functional;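 further: TR-FRET signal of purified GST-Vif binding a biotinylated A3G peptide; inhibitors lower the FRET signal by blocking Vif and A3G binding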
# [19] = molecular target: T7, Heat shock factor protein 1 (Mus musculus, UniProt P38532); experiment: decrease of HSF1-responsive luciferase luminescence – cell-based, NIH3T3, dose retest, confirmation (AID 2382); type: functional;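 further: NIH3T3 fibroblasts with HSF1-driven luciferase reporter stressed by proteasome inhibitor MG132; luminescence from HSF1-driven luciferase expression after 8 hours of MG132 stress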
# T7 sequence (P38532 whole entry): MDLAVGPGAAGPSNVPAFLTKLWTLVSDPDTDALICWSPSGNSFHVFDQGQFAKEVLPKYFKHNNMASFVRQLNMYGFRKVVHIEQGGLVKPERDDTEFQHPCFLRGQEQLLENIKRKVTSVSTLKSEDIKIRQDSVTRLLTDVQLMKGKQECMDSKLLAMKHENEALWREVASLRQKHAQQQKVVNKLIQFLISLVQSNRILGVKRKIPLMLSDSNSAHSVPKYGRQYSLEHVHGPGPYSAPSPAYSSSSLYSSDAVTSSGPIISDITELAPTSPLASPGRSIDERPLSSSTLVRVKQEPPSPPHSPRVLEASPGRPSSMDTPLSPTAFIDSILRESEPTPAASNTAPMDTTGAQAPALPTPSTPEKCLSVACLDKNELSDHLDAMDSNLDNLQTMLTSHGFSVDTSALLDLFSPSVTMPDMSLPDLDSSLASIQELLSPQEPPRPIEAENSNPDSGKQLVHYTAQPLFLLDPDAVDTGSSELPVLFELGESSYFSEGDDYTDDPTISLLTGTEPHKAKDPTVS
# Voltage-dependent T-type calcium channel subunit alpha-1H, sequence (O95180 whole entry, the tested form may be a part): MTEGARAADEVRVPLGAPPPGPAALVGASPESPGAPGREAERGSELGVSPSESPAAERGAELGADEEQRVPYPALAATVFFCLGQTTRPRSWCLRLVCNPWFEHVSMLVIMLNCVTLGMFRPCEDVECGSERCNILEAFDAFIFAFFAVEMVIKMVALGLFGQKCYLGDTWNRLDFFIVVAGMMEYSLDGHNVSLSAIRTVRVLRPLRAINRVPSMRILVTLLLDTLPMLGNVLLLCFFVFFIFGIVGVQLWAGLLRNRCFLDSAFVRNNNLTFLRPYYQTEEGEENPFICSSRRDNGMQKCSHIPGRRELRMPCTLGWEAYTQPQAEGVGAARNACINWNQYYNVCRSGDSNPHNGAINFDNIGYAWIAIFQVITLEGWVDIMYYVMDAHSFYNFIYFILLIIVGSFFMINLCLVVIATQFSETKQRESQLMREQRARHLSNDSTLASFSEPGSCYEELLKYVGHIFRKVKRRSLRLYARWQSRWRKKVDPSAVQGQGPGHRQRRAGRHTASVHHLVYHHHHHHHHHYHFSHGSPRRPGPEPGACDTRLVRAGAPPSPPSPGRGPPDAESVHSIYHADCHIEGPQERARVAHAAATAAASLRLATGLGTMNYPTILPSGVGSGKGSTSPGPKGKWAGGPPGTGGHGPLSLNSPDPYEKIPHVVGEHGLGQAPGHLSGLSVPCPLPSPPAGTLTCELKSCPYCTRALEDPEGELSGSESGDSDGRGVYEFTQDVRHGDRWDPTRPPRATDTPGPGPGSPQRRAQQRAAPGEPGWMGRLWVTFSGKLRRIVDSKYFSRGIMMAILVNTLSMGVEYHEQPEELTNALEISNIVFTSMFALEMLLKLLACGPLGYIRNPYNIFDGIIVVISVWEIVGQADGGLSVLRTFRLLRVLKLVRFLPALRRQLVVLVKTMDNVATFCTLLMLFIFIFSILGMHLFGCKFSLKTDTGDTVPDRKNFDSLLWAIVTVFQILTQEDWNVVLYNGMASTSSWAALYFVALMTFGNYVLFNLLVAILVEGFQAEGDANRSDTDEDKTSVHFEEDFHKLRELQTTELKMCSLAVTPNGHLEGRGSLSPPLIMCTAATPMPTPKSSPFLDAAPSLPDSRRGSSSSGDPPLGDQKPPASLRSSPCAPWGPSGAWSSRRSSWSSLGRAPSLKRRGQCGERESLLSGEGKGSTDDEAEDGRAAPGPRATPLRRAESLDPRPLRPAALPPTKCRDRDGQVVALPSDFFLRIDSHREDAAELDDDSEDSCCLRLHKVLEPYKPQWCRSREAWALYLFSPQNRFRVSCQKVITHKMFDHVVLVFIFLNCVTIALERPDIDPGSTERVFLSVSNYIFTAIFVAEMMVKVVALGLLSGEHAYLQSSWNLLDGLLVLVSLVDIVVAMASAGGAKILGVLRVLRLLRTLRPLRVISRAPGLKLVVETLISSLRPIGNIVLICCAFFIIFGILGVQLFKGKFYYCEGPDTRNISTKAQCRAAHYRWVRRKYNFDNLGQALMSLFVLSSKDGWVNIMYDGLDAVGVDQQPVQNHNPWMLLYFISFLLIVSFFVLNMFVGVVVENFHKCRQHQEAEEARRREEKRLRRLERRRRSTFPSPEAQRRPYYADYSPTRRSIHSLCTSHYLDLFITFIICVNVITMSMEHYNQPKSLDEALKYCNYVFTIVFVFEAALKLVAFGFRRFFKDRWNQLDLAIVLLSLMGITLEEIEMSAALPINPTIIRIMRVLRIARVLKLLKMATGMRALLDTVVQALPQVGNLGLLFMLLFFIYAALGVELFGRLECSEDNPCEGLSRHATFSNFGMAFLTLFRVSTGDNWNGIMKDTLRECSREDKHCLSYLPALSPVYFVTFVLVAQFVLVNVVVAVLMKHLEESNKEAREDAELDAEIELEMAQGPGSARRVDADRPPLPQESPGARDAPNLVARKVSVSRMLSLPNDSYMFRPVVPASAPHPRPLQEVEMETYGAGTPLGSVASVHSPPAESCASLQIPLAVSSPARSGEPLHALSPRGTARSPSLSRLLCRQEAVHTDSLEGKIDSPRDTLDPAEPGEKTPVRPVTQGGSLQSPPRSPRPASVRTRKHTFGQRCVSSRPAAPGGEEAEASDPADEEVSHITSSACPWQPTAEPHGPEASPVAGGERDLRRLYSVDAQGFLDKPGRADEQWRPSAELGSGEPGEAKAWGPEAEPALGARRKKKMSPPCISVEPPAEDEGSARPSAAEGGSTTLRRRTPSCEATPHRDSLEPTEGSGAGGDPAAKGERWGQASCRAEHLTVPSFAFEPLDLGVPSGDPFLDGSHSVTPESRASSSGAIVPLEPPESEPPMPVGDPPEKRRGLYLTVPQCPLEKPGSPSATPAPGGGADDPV
# T3 sequence (P11940 whole entry, the tested form may be a part): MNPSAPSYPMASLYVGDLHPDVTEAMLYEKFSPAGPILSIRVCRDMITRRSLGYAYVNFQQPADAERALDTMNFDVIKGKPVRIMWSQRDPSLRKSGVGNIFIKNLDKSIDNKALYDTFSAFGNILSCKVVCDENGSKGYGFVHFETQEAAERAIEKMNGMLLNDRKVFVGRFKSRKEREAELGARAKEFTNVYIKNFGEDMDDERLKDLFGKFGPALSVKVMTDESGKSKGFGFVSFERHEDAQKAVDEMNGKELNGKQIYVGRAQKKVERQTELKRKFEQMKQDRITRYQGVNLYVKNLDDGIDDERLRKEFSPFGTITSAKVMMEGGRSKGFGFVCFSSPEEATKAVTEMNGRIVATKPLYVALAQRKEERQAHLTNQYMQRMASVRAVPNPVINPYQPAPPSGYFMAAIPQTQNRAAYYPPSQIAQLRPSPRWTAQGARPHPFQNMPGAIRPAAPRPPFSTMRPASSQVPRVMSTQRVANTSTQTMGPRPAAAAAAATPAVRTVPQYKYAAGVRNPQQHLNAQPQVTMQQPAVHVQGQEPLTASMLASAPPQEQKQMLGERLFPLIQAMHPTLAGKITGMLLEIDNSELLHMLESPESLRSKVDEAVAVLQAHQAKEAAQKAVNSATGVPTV
# T1 sequence (Q92731 whole entry): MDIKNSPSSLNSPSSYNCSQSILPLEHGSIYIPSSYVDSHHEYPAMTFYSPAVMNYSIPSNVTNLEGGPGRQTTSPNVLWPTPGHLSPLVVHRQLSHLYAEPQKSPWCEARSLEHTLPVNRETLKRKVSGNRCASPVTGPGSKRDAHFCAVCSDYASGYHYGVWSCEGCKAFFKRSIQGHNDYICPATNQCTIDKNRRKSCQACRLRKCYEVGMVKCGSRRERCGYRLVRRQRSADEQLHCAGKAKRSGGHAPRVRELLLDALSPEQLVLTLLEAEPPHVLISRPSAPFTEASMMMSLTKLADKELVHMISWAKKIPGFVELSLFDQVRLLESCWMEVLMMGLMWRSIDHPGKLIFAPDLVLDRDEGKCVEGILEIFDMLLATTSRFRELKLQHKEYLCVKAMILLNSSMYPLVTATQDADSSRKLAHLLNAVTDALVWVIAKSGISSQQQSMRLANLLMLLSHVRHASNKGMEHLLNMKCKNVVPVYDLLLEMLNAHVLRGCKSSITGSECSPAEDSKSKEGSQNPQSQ
structure (smiles),measurement,setting,value
CCOC(=O)Cc1csc(NC(=O)Cc2cccs2)n1,IC50,[1],5.81 µM (active)
same,IC50,[2],3.22 µM (not active)
COc1ccc(C(=O)N/N=C(\c2ccccc2)c2ccccn2)cc1,EC50,[3],10.3 µM (active)
same,EC50,[4],38.6 µM (active)
same,IC50,[5],> 50 µM (not active)
same,CC50,[6],0.517 µM (active)
same,CC50,[7],9.02 µM (active)
same,CC50,[8],2.39 µM (active)
same,IC50,[9],8.09 µM (active)
same,AC50,[10],1.18 µM (active)
same,CC50,[11],3.02 µM (active)
CCN1CSC(=S)N(Cc2ccc(OC)cc2)C1,CC50,[6],9.8 µM (active)
same,CC50,[8],6.33 µM (active)
same,IC50,[9],11.8 µM (active)
same,CC50,[11],12.1 µM (active)
same,IC50,[12],> 66 µM (inactive)
same,IC50,[13],> 66 µM (inactive)
Cc1noc(C)c1CCC(=O)NC1CCCN(Cc2ccc(CC(C)C)cc2)C1 (stereo not drawn),EC50,[14],3.76 µM (active)
CCCCN(CCCC)S(=O)(=O)c1ccc(C(=O)Nc2nnc(CSC)o2)cc1,EC50,[15],2.82 µM (active)
CCOC(=O)C1Nc2ccc(Br)cc2C2C=CCC12 (stereo not drawn),EC50,[16],> 300 µM (not active)
same,EC50,[17],46 µM (active)
same,IC50,[18],> 100 µM (active)
CCC(=O)N1CCN(c2ccc(Cl)cc2NC(=O)Cc2ccccc2)CC1,EC50,[15],10.1 µM (active)
Cc1ccc(OCC(=O)N(C)CCc2ccccn2)cc1,EC50,[14],6.68 µM (active)
Cc1cc2ncn(CCCCOc3ccccc3)c2cc1C,EC50,[15],7.27 µM (active)
CC(=O)Nc1c(O)nc(SCC(=O)Nc2ccc(C(C)=O)cc2)nc1O,IC50,[18],> 100 µM (active)
CN(C)C(CNC(=O)CCS(=O)(=O)c1ccccc1)c1ccccc1 (stereo not drawn),EC50,[14],0.376 µM (active)
CC(C)(C)c1ccccc1NC(=O)NC1CCN(Cc2c(F)cccc2Cl)CC1,EC50,[19],> 195 µM (not active)
same,EC50,[14],2.11 µM (active)
CCN1C(=O)CS/C1=C(\C#N)S(=O)(=O)c1ccccc1,IC50,[18],> 100 µM (active)
Cc1nn(Cc2ccc(Cl)c(Cl)c2)c(C)c1NC(=O)c1cc(CC(C)C)on1,EC50,[15],1.28 µM (active)
CCOC(=O)CSc1nnc(-c2ccccc2NC(=O)c2ccccc2)o1,IC50,[18],> 100 µM (active)
CCc1c(C)sc(NC(=O)c2cc(-c3ccco3)on2)c1C#N,IC50,[18],> 100 µM (active)
